Reference: article PMC9730296, “High-Throughput Steady-State Enzyme Kinetics Measured in a Parallel Droplet Generation and Absorbance Detection Platform” (Analytical Chemistry, 2022)

Tested on: T1, SN243
T1 construct: purified
Assay: pNP release, absorbance […] nm in microfluidic droplets
Format: biochemical, metagenome: source not printed
Details: 100 mM Tris pH 8.0, 150 mM NaCl, room temperature, substrate in DMSO

| SMILES | Km (detection points 1-4 only) | Km (mean of 12 datasets) |
| --- | --- | --- |
| O=C(O)[C@H]1O[C@@H](Oc2ccc([N+](=O)[O-])cc2)[C@H](O)[C@@H](O)[C@@H]1O [pNP-β-GlcA] | 0.015 mM | – |
| O=C(O)C1OC(Oc2ccc([N+](=O)[O-])cc2)C(O)C(O)C1O (stereo not drawn) [pNP-β-GalA] | – | 1.6 ± 0.3 mM |
| O=[N+]([O-])c1ccc(O[C@@H]2O[C@H](CO)[C@H](O)[C@H](O)[C@H]2O)cc1 [pNP-β-Gal] | – | 75.8 ± 7.7 mM |

Other lines, results leading:

| Km (detection points 1-4 only) | Km (mean of 12 datasets) | SMILES |
| --- | --- | --- |
| – | 36.8 ± 9 mM | O=[N+]([O-])c1ccc(O[C@@H]2O[C@H](CO)[C@@H](O)[C@H](O)[C@H]2O)cc1 [pNP-β-Glc] |
| – | 21.9 ± 1.6 mM | O=[N+]([O-])c1ccc(O[C@@H]2OC[C@@H](O)[C@H](O)[C@H]2O)cc1 [pNP-β-Xyl] |
